Measured values published in publication PMC12670405, “Second-Generation AURKA-Targeting PROTACs: Structural Optimization toward in Vivo Degradation in Neuroblastoma” (Journal of Medicinal Chemistry, 2025).

Tests used:
Plasma stability assay = type: in vitro ADME, CD-1 mouse; settings: for half-life at 1 μM: CD-1 mouse plasma, 37 °C, read-out: plasma t1/2
Procedure: (§1) Plasma and metabolic stability tests were performed by Eurofins Discovery. For the plasma stability assay, test compounds were incubated in CD-1 mouse plasma for 0, 0.5, 1, 1.5, and 2 h at 37 °C at a concentration of 1 μM. For the metabolic stability assay, test compounds were incubated at 37 °C in either (1) CD-1 mouse liver microsomes (MLM) (0.1 mg/mL) at a concentration of 0.1 μM for 0, 15, 30, 45, and 60 min or (2) CD-1 mouse hepatocytes (MH) (0.7 million viable cells/mL) at a concentration of 1 μM for 0, 0.5, 1, 1.5, and 2 h. At the respective time points, acetonitrile was added to the incubation mixture followed by centrifugation. Samples were analyzed by HPLC-MS/MS and peak areas were recorded for each analyte. Compound stability, expressed as the percentage of parent compound remaining, was calculated by comparing the peak area of the compound at each time point relative to that of the 0h time point. Percentage compound remaining is plotted as a function of time as a logarithmic curve. Half-life (t 1/2) is estimated from the slope of the initial linear range of the curve, assuming first-order kinetics. […] Both plasma and metabolic assay experiments were performed once with 2 replicate samples each.

[1] = Metabolic stability in mouse liver microsomes (MLM); type: in vitro ADME, CD-1 mouse; settings: CD-1
Procedure: as §1

[2] = In vivo pharmacokinetics study; design: species or system ICR (CD-1) mice; settings: for clearance / bioavailability: male, ICR (CD-1), mouse, plasma; for clearance: iv, 15 mg/kg, read-out: CLIV, mouse (in vivo systemic clearance); for clearance / CLIV, mouse (in vivo systemic clearance): IV 15 mg/kg, noncompartmental analysis; for bioavailability: mice, PO 30 mg/kg vs IV 15 mg/kg
Procedure: Both the in vivo pharmacokinetics and in vivo pharmacodynamics studies were performed by Eurofins Pharmacology Discovery Services. All mice were provided by BioLasco Taiwan (under Charles River Laboratories Licensee). Animals were acclimated for 3 days prior to use and were confirmed to be in good health. All aspects of this work including housing, experimentation, and animal disposal were performed in general accordance with the “Guide for the Care and Use of Laboratory Animals: Eighth Edition” (National Academies Press, Washington, DC. 2011) in a AAALAC-accredited laboratory animal facility. In addition, the animal care and use protocol was reviewed and approved by the IACUC at Eurofins Pharmacology Discovery Services; IN020-08202020 and ON002-07142023.
Male ICR (CD-1) mice, weighing 30 ± 5 g, were given intravenous (IV), intraperitoneal (IP) or oral gavage (PO) administrations of PROTACs at 15 mg/kg (IV and IP) or 30 mg/kg (PO). Dosing volumes used were 5 mL/kg (IV and IP) and 10 mL/kg (PO). The test compounds were dissolved in 5% DMSO/5% Solutol HS15/90% PBS. Serial blood samples were collected at 0.05, 0.167, 0.5, 1, 2, 4, 8, 12 h postadministration (an additional 24h sample was collected for IV-administered mice). Blood samples were collected from three animals at each time point via facial vein (±50 μL) for the first time points and cardiac puncture (±300 μL) for the final time point and stored in tubes coated with lithium heparin. Within 1h of collection, samples were mixed gently and centrifuged at 2500 g for 15 min at 4 °C. Plasma samples were then harvested and kept frozen at −70 °C until further processing. Samples were processed using acetonitrile precipitation and analyzed by LC–MS/MS. Mean plasma concentrations were plotted as a function of time and the fundamental PK parameters were obtained from a noncompartmental analysis (NCA) using WinNonlin. Free drug levels (C p,u) for SK4454 and SK5527 were calculated by factoring in their plasma protein binding (f u) values using the following formula: C p,u = C p * f u.

half-life at 1 μM (Plasma stability assay) [h] | plasma t1/2 (Plasma stability assay) [h] | microsomal CLint at 0.1 μM [1] [µL/min/mg] | clearance [2] [mL/min/kg] | CLIV, mouse (in vivo systemic clearance) ([2]; listed as PROTAC 32, 15 mg/kg) [mL/min/kg] | SMILES | bioavailability [2] [%] | CLIV, mouse (in vivo systemic clearance) ([2]; listed as PROTAC 33, 15 mg/kg) [mL/min/kg]
> 2 | > 2 | 369 | 23 |  | O=C1CCC(Nc2ccc(N3CCN(C4CN(C(=O)[C@]5(Cc6cccc(Nc7nccs7)n6)CC[C@@H](Oc6cccc(Cl)c6F)CC5)C4)CC3)c(F)c2)C(=O)N1 (stereo partly shown) [PROTAC 18] |  | 
> 2 | > 2 | 666 | 35 |  | O=C1CCN(c2ccc(N3CCN(CC4CN(C(=O)[C@]5(Cc6cccc(Nc7nccs7)n6)CC[C@@H](Oc6cccc(Cl)c6F)CC5)C4)CC3)nc2)C(=O)N1 [PROTAC 23] |  | 
> 2 | > 2 | 565 | 22 |  | O=C1CCN(c2ccc(N3CCN(CC4CCN(C(=O)[C@]5(Cc6cccc(Nc7nccs7)n6)CC[C@@H](Oc6cccc(Cl)c6F)CC5)CC4)CC3)nc2)C(=O)N1 [PROTAC 24] |  | 
> 2 | > 2 | 438 | 38 |  | Cc1cc(Nc2ccc(F)c(CC3(C(=O)N4CC(N5CCN(c6ccc(NC7CCC(=O)NC7=O)cc6F)CC5)C4)CCN(Cc4cccc(Cl)c4F)CC3)n2)n[nH]1 (stereo not shown) [PROTAC 29] |  | 
1.12 |  | 1390 | 114 |  | O=C1CCC(N2C(=O)c3cccc(OCCOCCOCCOCCNC(=O)[C@]4(Cc5cccc(Nc6nccs6)n5)CC[C@@H](Oc5cccc(Cl)c5F)CC4)c3C2=O)C(=O)N1 (stereo partly shown) [SK2188, reference compound] |  | 
> 2 | > 2 | 437 | 18 | 18.1 | Cc1cc(Nc2ccc(F)c(CC3(C(=O)N4CCC(CN5CCN(c6ccc(N7CCC(=O)NC7=O)cn6)CC5)CC4)CCN(Cc4cccc(Cl)c4F)CC3)n2)n[nH]1 [SK4454] | 7 | 

SMILES | half-life at 1 μM (Plasma stability assay) [h] | plasma t1/2 (Plasma stability assay) [h] | microsomal CLint at 0.1 μM [1] [µL/min/mg] | clearance [2] [mL/min/kg] | CLIV, mouse (in vivo systemic clearance) ([2]; listed as PROTAC 32, 15 mg/kg) [mL/min/kg] | bioavailability [2] [%] | CLIV, mouse (in vivo systemic clearance) ([2]; listed as PROTAC 33, 15 mg/kg) [mL/min/kg]
Cc1cc(Nc2ccc(F)c(CC3(C(=O)N4CCC(F)(CN5CCN(c6ccc(N7CCC(=O)NC7=O)cn6)CC5)CC4)CCN(Cc4cccc(Cl)c4F)CC3)n2)n[nH]1 [SK5527] | > 2 | > 2 | 582 | 12 |  | 11 | 12.2
